According to patent US8435978B2, “Substituted sulfonamide compounds” (Gruenenthal GmbH, priority 2006, dated 2013):

Legend:
[1] = biological target: T1, human B1R receptor (Homo sapiens, UniProt P46663); experiment: Functional study on the bradykinin receptor 1 (B1R), FLIPR Ca2+ assay, hB1R cells; assay type: cell-based; settings: test substance 10 μM; hB1R CHO K1 cells; agonist Lys-Des-Arg9-bradykinin 0.5 nM; % inhibition compared with the maximum achievable inhibition
T1 construct: host or cells: CHO K1 cells (Chinese hamster ovary), stably transfected
T1 sequence (P46663 1-353): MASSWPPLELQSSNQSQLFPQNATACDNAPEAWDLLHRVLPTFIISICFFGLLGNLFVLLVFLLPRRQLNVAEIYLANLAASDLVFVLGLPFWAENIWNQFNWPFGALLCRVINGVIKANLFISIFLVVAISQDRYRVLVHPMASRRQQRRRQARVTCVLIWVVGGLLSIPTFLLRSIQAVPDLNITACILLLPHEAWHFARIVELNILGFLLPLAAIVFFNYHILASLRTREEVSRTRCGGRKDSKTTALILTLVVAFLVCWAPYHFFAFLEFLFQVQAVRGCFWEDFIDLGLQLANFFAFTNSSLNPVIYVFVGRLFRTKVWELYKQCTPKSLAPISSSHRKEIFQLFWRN
Procedure, shortened: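 FLIPR Ca2+ assay in recombinant CHO K1 cells (human or rat B1R), Fluo-4 dye; 10 μM compound, 10 min, then EC-level agonist per species (0.5 nM Lys-Des-Arg9-BK human / 100 nM Des-Arg9-BK rat). Output: % inhibition vs maximum.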

[2] = test system: formalin-induced pain behavior; experiment: Formalin test in the mouse (phase 2, chronic pain component); assay type: in vivo; settings: iv, 5 min. before formalin injection, observation 21 to 24 minutes after formalin
Procedure: The formalin test (Dubuisson, D. and Dennis, S. G., 1977, Pain, 4, 161-174) represents a model for both acute and chronic pain. By means of a single formalin injection into the dorsal side of a rear paw, a biphasic nociceptive reaction is induced in freely mobile test animals; the reaction is detected by observing three behaviour patterns which are clearly distinguishable from one another. The reaction is two-phase: phase 1=immediate reaction (duration up to 10 min., shaking of the paw, licking), phase 2=late reaction (after a rest phase; likewise shaking of the paw, licking; duration up to 60 min.). The 1st phase reflects a direct stimulation of the peripheral nocisensors with high spinal nociceptive input (acute pain phase); the 2nd phase reflects a spinal and peripheral hypersensitization (chronic pain phase). In the studies described here, the chronic pain component (phase 2) has been evaluated. Formalin in a volume of 20 μl and a concentration of 1% is administered subcutaneously into the dorsal side of the right rear paw of each animal. The specific changes in behavior, such as lifting, shaking or licking of the paw (score 3, Dubuisson & Dennis, 1977), are observed and recorded in the observation period of 21 to 24 minutes following the formalin injection. The behaviour of the animals after administration of the substance (n=10 per dose of substance) was compared with a control group which received vehicle (n=10). Based on the quantification of the pain behavior, the action of the substance in the formalin test was determined as the change in percent compared with the control. The ED50 calculations (ED50=mean effective dose) were carried out by regression analysis according to the method of Litchfield and Wilcoxon (Litchfield, J. T., Wilcoxon, J. J., 1949, J. Pharmacol. Exp. Ther. 96, 99-113). The time of administration before the formalin injection was chosen in dependence on the mode of administration of the compounds according to the invention (intravenous: 5 min.).

B1R Antagonism, human [10 μM] % Inhibition [1]: 101.66%
Compound: COc1cc(C)c(S(=O)(=O)N2CCCCC2COCC(=O)N2CCN(C3CCN(C)CC3)CC2)c(C)c1 (centres unmarked) [Example 8, 2-[1-(4-methoxy-2,6-dimethyl-phenylsulfonyl)-piperidin-2-ylmethoxy]-1-[4-(1-methyl-piperidin-4-yl)-piperazin-1-yl]-ethanone]
ED50 [2]: 12.8 mg/kg
